Several values for one entry are separate records, joined by “and”; a condition that tells them apart may be missing. Equal values may be shown once. Entries after “also recorded” stand apart in the source; their conditions may differ. Read-outs that look alike come from different tables or passages of the source.
How the values were obtained:
[1] = system: HeLa; assay: AlamarBlue cell viability of HeLa cells; assay type: cell-based, human
Description: (§1) To determine the inhibitory effect of JC-229 on human cells, HeLa and HEK293 cells were suspended in 180 μl D-MEM with 10% FBS and plated at a density of 2 × 10^4 cells/ml in triplicate. […] Percent viability was plotted using GraphPad Prism software. […] We estimated the EC50 values using the concentration of JC-229 that causes a 50% reduction of cell viability (inhibitor vs. normalized response, variable slope).

[2] = target: LmexRPA1 DBD-AB; assay: MST inhibition of ssDNA-binding activity, LmexRPA1 DBD-AB; parameters: species or system L. mexicana; settings: dT32, MST
Excerpt: (§2) Samples were then loaded into MST capillaries.
(§3) We used one site binding to obtain a dissociation constant (Kd) and standard 4-parameter logistic curve (Sigmoidal curve) analysis to obtain the IC50 value of JC-229. We used GraphPad Prism software.

[3] = target: TbRPA complex (Trypanosoma brucei brucei, UniProt Q384B5); assay: MST inhibition of ssDNA-binding activity, TbRPA complex; parameters: species or system T. brucei
Sequence of TbRPA complex (Q38DK0 entry or part of it): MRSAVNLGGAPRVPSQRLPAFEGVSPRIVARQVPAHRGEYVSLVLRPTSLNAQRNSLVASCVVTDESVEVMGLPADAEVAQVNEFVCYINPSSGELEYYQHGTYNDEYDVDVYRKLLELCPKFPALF
Sequence of TbRPA complex (Q57ZN9 entry or part of it, further chain): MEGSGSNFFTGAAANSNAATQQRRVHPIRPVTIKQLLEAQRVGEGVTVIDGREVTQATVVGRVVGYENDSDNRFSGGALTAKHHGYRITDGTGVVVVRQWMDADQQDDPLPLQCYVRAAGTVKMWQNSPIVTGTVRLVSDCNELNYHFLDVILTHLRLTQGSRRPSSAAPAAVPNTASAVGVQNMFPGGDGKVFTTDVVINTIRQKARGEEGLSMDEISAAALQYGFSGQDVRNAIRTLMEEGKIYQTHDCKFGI
Sequence of TbRPA complex (Q384B5 entry or part of it): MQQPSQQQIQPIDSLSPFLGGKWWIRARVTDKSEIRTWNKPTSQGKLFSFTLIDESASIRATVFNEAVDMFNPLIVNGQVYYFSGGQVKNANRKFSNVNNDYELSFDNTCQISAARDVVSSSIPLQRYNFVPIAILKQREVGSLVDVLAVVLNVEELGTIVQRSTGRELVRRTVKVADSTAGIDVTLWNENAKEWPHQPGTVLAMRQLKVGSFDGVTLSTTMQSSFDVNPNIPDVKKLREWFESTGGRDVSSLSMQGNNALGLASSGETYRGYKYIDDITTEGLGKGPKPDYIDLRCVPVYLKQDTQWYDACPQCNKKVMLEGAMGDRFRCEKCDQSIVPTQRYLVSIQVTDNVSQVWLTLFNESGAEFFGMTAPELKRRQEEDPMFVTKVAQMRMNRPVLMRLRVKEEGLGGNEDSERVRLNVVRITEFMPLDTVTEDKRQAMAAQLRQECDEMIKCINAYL
Excerpt: as §2, §3

[4] = system: T. brucei cells; assay: DNA synthesis assay by BrdU pulse labeling; assay type: cell-based, Trypanosoma brucei; settings: 10 µM, after 8 h of treatment
Description: The 5-Bromo-2′-deoxyuridine (BrdU) incorporation assay was performed as described previously in ref. [49]. BrdU (Sigma-Aldrich, catalog number B5002) was added to cell cultures to a final concentration of 500 μM and incubated for 40 min at 37 °C. About 20 million cells were harvested and fixed in ice-cold 70% ethanol. DNA in fixed cells was denatured in 0.1 N HCl (Fisher Scientific) with 0.5% Tween 20 (Sigma-Aldrich) and 1% BSA (Jackson Immunoresearch) for 20 min at room temperature. To stain newly incorporated DNA, fixed cells were incubated with 1 µg/ml mouse anti-BrdU antibody (BD Pharmingen, catalog number 555627, lot 6084615, dilution 1:500) at room temperature for 2.5 h and then with 4 µg/ml donkey anti-mouse Alexa 488 (Invitrogen, catalog number A-21202, lot 94C2-1, dilution 1:500) at room temperature for 1 h in the dark. Bulk DNA was stained with 5 µg/ml PI by incubating at room temperature for 30 min in the dark. Samples were analyzed by flow cytometry (FACSVia, BD Biosciences) and FlowJo.

[5] = target: T1, TcRPA1 DBD-AB T105S (Trypanosoma cruzi, UniProt Q4DXC9, T105S); assay: MST inhibition of ssDNA-binding activity, TcRPA1 DBD-AB T105S mutant; parameters: species or system T. cruzi
T1 sequence (Q4DXC9 1-247 T105S): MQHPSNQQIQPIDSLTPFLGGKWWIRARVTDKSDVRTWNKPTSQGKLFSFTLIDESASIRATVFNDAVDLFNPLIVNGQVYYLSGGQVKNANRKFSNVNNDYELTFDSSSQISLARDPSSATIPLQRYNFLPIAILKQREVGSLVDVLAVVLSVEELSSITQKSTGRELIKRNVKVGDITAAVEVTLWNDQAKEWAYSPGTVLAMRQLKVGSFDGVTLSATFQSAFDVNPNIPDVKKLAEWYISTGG
Excerpt: as §2, §3

[6] = system: TcRPA1 DBD-AB; assay: EMSA inhibition of ssDNA binding, TcRPA1 DBD-AB; parameters: species or system T. cruzi
[7] = target: TcRPA1 DBD-AB; assay: MST inhibition of ssDNA-binding activity, TcRPA1 DBD-AB; parameters: species or system T. cruzi; settings: dT32, 30 nM protein
Excerpt: as §2, §3

[8] = target: T2, TbRPA1 DBD-AB (Trypanosoma brucei brucei, UniProt Q384B5); assay: EMSA inhibition of ssDNA binding, TbRPA1 DBD-AB; settings: 0.625-80 µM, 5´IRDye800-dT32
T2 sequence (Q384B5 entry or part of it): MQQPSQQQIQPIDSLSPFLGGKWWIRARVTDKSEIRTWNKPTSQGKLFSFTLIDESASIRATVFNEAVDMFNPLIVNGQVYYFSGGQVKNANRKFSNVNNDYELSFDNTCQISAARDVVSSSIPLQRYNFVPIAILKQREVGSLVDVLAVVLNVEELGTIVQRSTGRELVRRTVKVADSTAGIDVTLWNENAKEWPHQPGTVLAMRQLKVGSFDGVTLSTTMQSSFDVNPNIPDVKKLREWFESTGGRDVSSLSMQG

[9] = system: TbRPA complex containing S105T mutation; assay type: binding, T. brucei; settings: dT32
[10] = target: TbRPA1 DBD-AB S105T; assay: MST inhibition of ssDNA-binding activity, TbRPA1 DBD-AB S105T mutant; parameters: species or system T. brucei; settings: dT32, 30 nM protein
Excerpt: as §2, §3

[11] = target: T3, HsRPA1 DBD-AB (Homo sapiens, UniProt P27694); assay: EMSA inhibition of ssDNA binding, HsRPA1 DBD-AB; settings: highest concentration 80 µM
T3 construct: were generated by PCR-amplifying the DBD-AB domain and cloning into a pET28a vector; made in house; host or cells: E. coli BL21
T3 sequence (P27694 181-427 limits assumed): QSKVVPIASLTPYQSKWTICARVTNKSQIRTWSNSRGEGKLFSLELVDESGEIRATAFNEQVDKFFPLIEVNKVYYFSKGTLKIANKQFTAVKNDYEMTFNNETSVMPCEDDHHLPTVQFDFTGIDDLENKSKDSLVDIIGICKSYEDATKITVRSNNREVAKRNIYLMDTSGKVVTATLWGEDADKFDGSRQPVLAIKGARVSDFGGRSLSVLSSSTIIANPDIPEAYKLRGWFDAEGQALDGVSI

[12] = system: T. brucei TbRPA1 sKO cells; assay: AlamarBlue cytotoxicity on TbRPA1 single knock-out (sKO) T. brucei cells
Description: To determine the viability of TbRPA1-depleted cells, we carried out the AlamarBlue assay (Thermo Fisher, catalog number A50101), an established colorimetric technique that detects metabolically active cells by measuring resorufin converted from resazurin by reducing the environment of live cells[70]. Cells from each time point were incubated with AlamarBlue dye for 4–6 h, and the percentage of live cells was determined[70]. Synergy H1 microplate reader (BioTek) was used with 560/590 nm (excitation/emission) filter settings and relative fluorescence unit (RFU) values were obtained. The percentage of viable cells were calculated from the RFU values.

[13] = system: T. brucei cells; assay: Cell-cycle analysis by PI staining and flow cytometry; assay type: cell-based, Trypanosoma brucei; settings: 10 µM
Description: About 10 million cells were collected, fixed with ice-cold 70% ethanol, and incubated with 50 μg/ml PI (Sigma-Aldrich) and 200 μg/ml RNase A (Sigma-Aldrich) in 1x PBS (Corning) at 37 °C for 30 min in the dark. Samples were analyzed by flow cytometry ([…], BD Biosciences) and FlowJo.

[14] = target: T2, TbRPA1 DBD-AB; assay: MST inhibition of ssDNA-binding activity, TbRPA1 DBD-AB; settings: 4-PL
Excerpt: as §2, §3

[15] = system: HEK293; assay: AlamarBlue cell viability of HEK293 cells; assay type: cell-based, human; settings: for EC50: HEK293, 72 h
Description: as §1

[16] = system: T. brucei cells; assay: Microscopic analysis of treated cells (DAPI); assay type: cell-based, Trypanosoma brucei; settings: 10 µM
Description: For microscopic analysis, untreated or JC-229 treated cells were seeded, and fixed with 1% paraformaldehyde for 10 min at room temperature. Cells were then washed with 1x PBS and stained with DAPI (0.5 µg/ml) (Sigma). Images were captured using fluorescence microscopy (EVOS M5000, Thermo Fisher Scientific) at 40x magnification and edited with Adobe Photoshop.

[17] = target: T3, HsRPA1 DBD-AB; assay: MST inhibition of ssDNA-binding activity, HsRPA1 DBD-AB; settings: dT32, MST
Excerpt: as §2, §3

[18] = target: T4, HsRPA complex (Homo sapiens, UniProt P27694); assay: MST inhibition of ssDNA-binding activity, HsRPA complex; settings: dT32, MST
T4 construct: made in house; host or cells: E. coli BL21
T4 sequence (P27694 whole entry): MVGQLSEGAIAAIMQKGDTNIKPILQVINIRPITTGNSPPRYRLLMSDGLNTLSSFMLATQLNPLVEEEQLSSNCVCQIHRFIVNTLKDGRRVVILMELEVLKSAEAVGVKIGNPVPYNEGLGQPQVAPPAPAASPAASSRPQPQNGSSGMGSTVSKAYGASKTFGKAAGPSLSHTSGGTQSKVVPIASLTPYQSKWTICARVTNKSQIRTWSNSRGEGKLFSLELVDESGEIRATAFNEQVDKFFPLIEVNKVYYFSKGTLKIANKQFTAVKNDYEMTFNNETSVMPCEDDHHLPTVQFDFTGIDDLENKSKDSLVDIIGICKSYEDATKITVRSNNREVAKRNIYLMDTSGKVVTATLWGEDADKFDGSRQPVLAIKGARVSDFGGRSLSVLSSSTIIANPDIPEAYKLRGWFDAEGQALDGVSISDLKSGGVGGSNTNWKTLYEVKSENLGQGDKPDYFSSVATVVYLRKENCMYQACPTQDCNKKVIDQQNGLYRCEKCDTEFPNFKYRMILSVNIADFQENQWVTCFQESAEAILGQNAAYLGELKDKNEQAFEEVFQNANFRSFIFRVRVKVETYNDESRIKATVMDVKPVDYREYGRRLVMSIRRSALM
T4 sequence (P15927 whole entry partner): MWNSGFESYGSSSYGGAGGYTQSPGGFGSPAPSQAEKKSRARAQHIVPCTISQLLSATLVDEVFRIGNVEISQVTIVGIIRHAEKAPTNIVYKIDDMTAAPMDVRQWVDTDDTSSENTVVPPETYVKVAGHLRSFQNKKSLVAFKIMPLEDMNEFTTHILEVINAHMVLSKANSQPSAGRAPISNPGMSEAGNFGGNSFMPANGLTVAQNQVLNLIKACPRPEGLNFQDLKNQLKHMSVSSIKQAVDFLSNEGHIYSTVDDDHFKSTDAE
T4 sequence (P35244 whole entry partner): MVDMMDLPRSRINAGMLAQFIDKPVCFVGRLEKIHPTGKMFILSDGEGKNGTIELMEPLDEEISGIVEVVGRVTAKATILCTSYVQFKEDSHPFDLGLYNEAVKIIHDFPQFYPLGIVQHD
Excerpt: as §2, §3

**Q.** What does the source list for Cc1ccc(C(=O)Nc2ccc(Cl)c(Cl)c2)cc1S(=O)(=O)Nc1ccc(Cl)c(Cl)c1 [JC-229, N-(3,4-dichlorophenyl)−3-(N-(3,4-dichlorophenyl)sulfamoyl)−4-methylbenzamide]?
**A.** Inhibition of HeLa at EC50 to T. brucei ([1]; 6.5 µM): barely inhibited; EC50 ([1]; Homo sapiens, HeLa, 72 h, 0.5-50 μM, 72 h, AlamarBlue, inhibitor vs. normalized response, variable slope (Fig. 3f)): 32 µM; EC50 ([1]; Homo sapiens, HeLa, 72 h, Sigmoidal, 4-PL (Suppl. Table 1-B)): 13.2 µM; inhibition at 50 µM ([1]; Homo sapiens, HeLa, 50 µM, 72 h, read-out: Inhibition of HeLa at maximum concentration): < 100%; IC50, inhibition of LmexRPA1 DBD-AB ssDNA binding [2]: No inhibition; also recorded: did not inhibit; IC50 ([3]; dT20, 25 nM complex, MST (Supplementary Fig. 11d)): 0.0339 µM and ~0.0339 µM; IC50 ([3]; dT32, 25 nM complex, MST (Fig. 5d)): 0.0245 µM; IC50 ([3]; dT32, 25 nM complex, MST (Supplementary Fig. 11d, 18g)): 0.0339 µM and ~0.0339 µM; New DNA synthesis (BrdU incorporation) [4]: completely blocked new DNA synthesis; also recorded: completely blocking DNA synthesis; IC50 [5]: 159 µM; Inhibition of TcRPA1 DBD-AB ssDNA binding (EMSA) [6]: did not inhibit; IC50, inhibition of TcRPA1 DBD-AB ssDNA binding [7]: No inhibition; also recorded: did not inhibit; Inhibition of ssDNA binding of TbDBD-AB (EMSA) [8]: inhibited by JC-229 in a dose-dependent manner; Effect on ssDNA binding of TbRPA S105T mutant complex (EMSA) [9]: not affected; IC50, inhibition of TbRPA1 DBD-AB S105T ssDNA binding [10]: No inhibition; also recorded: did not inhibit; Inhibition of ssDNA binding of HsDBD-AB (EMSA) [11]: did not inhibit; EC50 ([12]; Trypanosoma brucei, 72 h, read-out: EC50, single KO (∆/WT), 72 h, [Inhibitor] vs. norm response, variable slope): 4.93 µM; EC50 ([12]; Trypanosoma brucei, read-out: EC50, single KO (∆/WT), Suppl. Table 5-B, Sigmoidal, 4-PL): 4.61 µM; EC50 ([12]; read-out: EC50, single KO (∆/WT), 72 h, [Inhibitor] vs. norm response, variable slope): 5 µM; Sub-G1 population ([13]; 32 h): ~45%; Cells that lost the bulk of their DNA ([13]; 48 h): ~97%; IC50 ([14]; dT12, 30 nM protein): 2.8 µM; IC50 ([14]; dT20, 30 nM protein): 0.881 µM; IC50 ([14]; dT32, 30 nM protein): 0.228 µM; Inhibition of HEK293 at EC50 to T. brucei ([15]; 6.5 µM): barely inhibited; EC50 ([15]; Homo sapiens, 0.5-50 μM, 72 h, AlamarBlue, inhibitor vs. normalized response, variable slope (Fig. 3f)): 18 µM; EC50 ([15]; Homo sapiens, 72 h, Sigmoidal, 4-PL (Suppl. Table 1-B)): 10.3 µM; inhibition at 50 µM ([15]; Homo sapiens, HEK293, 50 µM, 72 h, read-out: Inhibition of HEK293 at maximum concentration): < 100%; Microscopic analysis of treated cells [16]: leads to cell death; IC50, inhibition of HsRPA1 DBD-AB ssDNA binding [17]: No inhibition; also recorded: no inhibitory effect; IC50, inhibition of HsRPA complex ssDNA binding [18]: No inhibition; also recorded: no inhibitory effect
